{"source": "patent US20250170110A1", "about": "“LYMPHATIC TARGETED ANTI-COAGULANT FOR THE PREVENTION OF LYMPHATIC THROMBOSIS” (THE TRUSTEES OF THE UNIVERSITY OF PENNSYLVANIA, priority 2022, published 2025)", "tested_on": "gut lymphatic clotting", "assay": "lymphatic clots in mice with induced deletion of lymphatic endothelial thrombomodulin (THBD)", "assay_type": "in vivo", "conditions": "oral warfarin in water, 3 weeks after induction", "description": "FIGS. 7A-7C show oral delivery of warfarin prevents lymphatic clots in mouse model of lymphothrombosis. […] P-values are indicated by asterisks as follows: ***p<0.001.\nHowever, dosing with existing antithrombotic drugs will confer systemic anticoagulation, with established significant risks of bleeding throughout the body, including in the gut and brain. […] Therefore, there is a clear need for a functional antithrombotic drug that can be delivered and act preferentially to the gut lymphatics at a therapeutic dose. In addition, the volume of lymphatic fluid in the gut is much less than the volume of blood in the body, which means that a therapeutic dose of drug directly to the gut lymphatics will be massively diluted once it reaches the blood stream to well below therapeutic levels, thereby preventing systemic anticoagulation and inappropriate bleeding."}
{"smiles": "CC(=O)CC(c1ccccc1)c1c(O)c2ccccc2oc1=O", "note": "(stereo not shown) [warfarin]", "values": [{"measurement": "lymphatic clotting (fibrin positive lymphatic vessels)", "value": "prevented lymphatic clotting"}]}
